Measurements from patent US11766414B2, “Compositions, delivery systems, and methods useful in tumor therapy” (Indi Molecular, Inc., priority 2020, dated 2023).
Where two headings read alike, the source gives them in different places. One block for each molecule: values may come before it. Starred links: 1 amine or outer side, 2 acyl side, 3 side chain; linkers in the order of their positions; H or OH if unused. Positions of bridges follow the written chain, without caps; N, C: chain ends. Non-standard residues stand in square brackets, D forms with d. Residues, ends and D or L forms follow the SMILES beside them. Triazole bridges read from a SMILES are 1,4-linked. *: point of attachment. DOTA = O=C(O)CN1CCN(CC(=O)O)CCN(CC(=O)*)CCN(CC(=O)O)CC1; Pteroyl = Nc1nc2ncc(CNc3ccc(C(=O)*)cc3)nc2c(=O)[nH]1; Biotin = O=C1N[C@H]2[C@H](CS[C@H]2CCCCC(=O)*)N1; PEG10 = NCCOCCOCCOCCOCCOCCOCCOCCOCCOCCOCCC(=O)O; Butanoyl(4-(4-MePh)) = Cc1ccc(CCCC(=O)*)cc1; Lys(N3) = [N-]=[N+]=NCCCC[C@H](N)C(=O)O; γGlu = O=C(O)[C@H](CCC(=O)[*:2])N[*:1]; PEG7 = NCCOCCOCCOCCOCCOCCOCCOCCC(=O)O; AEEEA = NCCOCCOCCOCC(=O)O; Pra = C#CC[C@H](N)C(=O)O; X1 = NOCC(=O)*

Key:
FOLR1 = FOLR1 (Homo sapiens, UniProt P15328); test: ELISA assay of FOLR1 binding
Chain of FOLR1 (P15328 25-234): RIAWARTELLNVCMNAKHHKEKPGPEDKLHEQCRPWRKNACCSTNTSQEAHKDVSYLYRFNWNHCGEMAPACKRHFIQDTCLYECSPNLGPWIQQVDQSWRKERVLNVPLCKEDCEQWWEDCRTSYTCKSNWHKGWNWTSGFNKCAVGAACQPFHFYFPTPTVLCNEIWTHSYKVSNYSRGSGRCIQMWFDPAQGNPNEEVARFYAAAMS
Excerpt: FIG. 5 is a diagram of ELISA assay of FOLR1 binding of heterobiligands.

[1] = Plasma protein binding, CD-1 mouse plasma; assay type: in vitro ADME
Procedure: (§1) HTD 96 a/b regenerated cellulose membrane strips with mass cutoff of 12-14 kDa were soaked in ultra-pure water at room temperature for 1 hour. Each swelled membrane was then soaked in 20:80 ethanol:water for 20 minutes.
(§2) Just prior to the experiment, the membranes were re-soaked in ultra-pure water. Plasma was prepared by thawing under cold water. The plasma was centrifuged to remove any clots and pH was adjusted to 7.0-8.0. Test articles and control compounds were diluted to 2 μM. The dialysis device was loaded by transferring 150 μL of the test article (in triplicate) to the donor side. The dialysis device was placed in a humidified incubator at 37° C. with 5% CO2 in a shaking platform that rotated slowly for 4 hours. After incubation, 50 μL of the supernatant was taken from both sides and analyzed by LC-MS/MS.

[2] = Plasma protein binding, human plasma; assay type: in vitro ADME
Procedure: as §1, §2

human recombinant NEP = human recombinant NEP (Homo sapiens, UniProt P08473); test: NEP enzymatic cleavage assay (MALDI, HPLC); assay type: biochemical; conditions: for NEP-mediated cleavage: MALDI
Chain of human recombinant NEP (P08473 whole entry): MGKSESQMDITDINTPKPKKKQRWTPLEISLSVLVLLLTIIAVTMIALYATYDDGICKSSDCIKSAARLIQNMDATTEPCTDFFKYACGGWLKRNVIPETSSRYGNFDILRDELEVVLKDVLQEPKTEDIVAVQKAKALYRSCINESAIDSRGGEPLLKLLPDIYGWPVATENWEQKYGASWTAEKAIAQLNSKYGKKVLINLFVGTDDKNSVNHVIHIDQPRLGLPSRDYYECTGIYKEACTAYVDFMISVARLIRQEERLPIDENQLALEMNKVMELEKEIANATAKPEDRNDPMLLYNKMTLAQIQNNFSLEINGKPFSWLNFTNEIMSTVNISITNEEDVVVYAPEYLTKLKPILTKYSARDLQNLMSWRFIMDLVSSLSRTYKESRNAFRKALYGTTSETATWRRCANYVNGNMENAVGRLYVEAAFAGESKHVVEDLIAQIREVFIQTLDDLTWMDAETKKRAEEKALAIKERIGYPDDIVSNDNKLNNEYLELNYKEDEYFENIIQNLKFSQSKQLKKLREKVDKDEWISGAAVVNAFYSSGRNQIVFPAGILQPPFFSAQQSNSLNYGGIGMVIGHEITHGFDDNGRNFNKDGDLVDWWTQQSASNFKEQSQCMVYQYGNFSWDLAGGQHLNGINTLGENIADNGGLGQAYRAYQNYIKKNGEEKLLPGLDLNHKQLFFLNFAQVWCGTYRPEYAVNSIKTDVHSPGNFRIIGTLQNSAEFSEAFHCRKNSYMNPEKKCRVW
Procedure: In order to test the susceptibility of GFK and MVK linkers to NEP-mediated cleavage, the peptide (Folate-hshta-Lys(MPBA)-Gly-Phe-Lys(DOTA) (SEQ ID NO:6)) was incubated with human recombinant NEP and analyzed the solution for the presence of cleaved adducts. MALDI was utilized to monitor the cleavage of a PCC heterobiligand that contains a NEP protease recognizable sequence (G-F-K). The PCC concentration was constant and the NEP concentration was titrated down from 10 nM to 1 nM, 0.1 nM, 0.01 nM, and no NEP. The NEP-mediated cleaved adduct was identified by mass. 10 μM PCC containing the GFK linker was combined with varying amounts of NEP. […] Below 0.1 nM no cleavage was observed. • Folate-hshta-Lys(MPBA)-Gly-Phe-Lys(DOTA) (SEQ ID NO:6) • Molecular weight 2231.42
The NEP-mediated cleavage was also monitored by HPLC. In agreement with the MALDI spectra, the HPLC chromatograms show depletion of the parent brush-border heterobiligand (retention time 17.1 minutes), dose-dependent on the amount of NEP spiked into the sample (10 nM, 1 nM, 0.1 nM, 0.01 nM, and no NEP). An appearance of a new peak (retention time 16.5 minutes) in concert with the depletion of the starting material is presumed to be the cleaved folate-containing peptide.
In order to test the specificity of NEP, a non-cleavable linker (PEG3) was also assayed.
To reduce the radioactive dose to the kidney, Indi ^177Lu-7327 was constructed to incorporate a GFK linker that is susceptible to cleavage by enzymes found predominately in the kidney's brush border. These enzymes cleave off the radionuclide-chelator complex, which is quickly eliminated by the kidney for excretion in the urine. The zinc metalloprotease neprilysin (NEP) is expressed with high abundance in the kidney. […] To confirm NEP-mediated cleavage of the GFK linker in Indi 7327, the peptide was incubated with recombinant human NEP at 37° C. for 1 h and analyzed by matrix-assisted laser desorption/ionization mass spectrometry (MALDI-MS) for the evolution of cleaved adducts (FIG. 42). […] The expected cleaved adduct (mass: 1283.16 m/z) appears in the samples containing 10, 1.0, and 0.1 nM NEP. […] Below 0.1 nM NEP, no cleavage was observed. In addition to confirming the selectivity of NEP for the GFK linker, it is also important to note that the remaining portions of the Indi 7327 were impervious to the enzyme.

Compound: C[C@H](O)[C@H]1NC(=O)[C@@H](Cc2c[nH]cn2)NC(=O)[C@@H](CO)NC(=O)[C@@H](Cc2c[nH]cn2)NC(=O)[C@@H](NC(=O)CCOCCOCCOCCOCCOCCOCCOCCNC(=O)CC[C@H](NC(=O)c2ccc(NCc3cnc4nc(N)[nH]c(=O)c4n3)cc2)C(=O)O)Cc2cn(nn2)CCCC[C@@H](C(=O)NCCOCCOCCOCCOCCOCCOCCOCCOCCOCCOCCC(=O)NCCOCCOCCOCCOCCOCCOCCOCCOCCOCCOCCC(=O)N[C@@H](CCCCNC(=O)CCCC[C@@H]2SC[C@@H]3NC(=O)N[C@@H]32)C(N)=O)NC(=O)[C@@H](C)NC1=O [Folate-PEG7-hshta] ({Pteroyl-γGlu-PEG7}-[Pra][dH][dS][dH][dT][dA][Lys(N3)][PEG10][PEG10]K(Biotin)-NH2; triazole 1-7)
EC50 (FOLR1; read-out: EC50 (ELISA, FOLR1)): 1 nM

Compound: C[C@H](O)[C@H]1NC(=O)[C@@H](Cc2ccc(O)cc2)NC(=O)[C@@H](CCCNC(=N)N)NC(=O)[C@@H](CCC(=O)O)NC(=O)[C@@H](CC(=O)O)NC(=O)[C@@H](NC(=O)[C@H](Cc2cn(CCOCCOCCOCCNC(=O)CC[C@H](NC(=O)c3ccc(NCc4cnc5nc(N)[nH]c(=O)c5n4)cc3)C(=O)O)nn2)NC(=O)CCOCCOCCOCCOCCOCCOCCOCCOCCOCCOCCNC(=O)CCOCCOCCOCCOCCOCCOCCOCCOCCOCCOCCNC(=O)CCCC[C@@H]2SC[C@@H]3NC(=O)N[C@@H]32)Cc2cn(nn2)CCCC[C@@H](C(N)=O)NC1=O [Pra(Az4-PEG3-folate)-deryt]
EC50 (FOLR1; read-out: EC50 (ELISA, FOLR1)): 0.27 nM

Compound: C[C@H](O)[C@H]1NC(=O)[C@@H](Cc2cnc[nH]2)NC(=O)[C@@H](CO)NC(=O)[C@@H](Cc2cnc[nH]2)NC(=O)[C@@H](NC(=O)CC[C@H](NC(=O)c2ccc(NCc3cnc4nc(N)[nH]c(=O)c4n3)cc2)C(=O)O)Cc2cn(nn2)CCCC[C@@H](C(=O)NCCOCCOCCOCC(=O)N[C@@H](CCCCNC(=O)CON)C(N)=O)NC(=O)[C@@H](C)NC1=O [compound 0328, Fol-hshta-PEG3-Lys(AO)] ({Pteroyl-γGlu}-[Pra][dH][dS][dH][dT][dA][Lys(N3)][AEEEA]K(X1)-NH2; triazole 1-7)
fraction unbound at 4 h, 2 μM ([1]; CD-1, mouse, plasma, AO-containing constructs, (FB), read-out: Plasma % Bound, Mu): 0.798
recovery at 4 h, 2 μM ([1]; CD-1, mouse, plasma, AO-containing constructs, (FB), read-out: Plasma protein binding % Recovery, Mu): 115%
fraction unbound at 4 h, 2 μM ([2]; human, plasma, AO-containing constructs, (FB), read-out: Plasma % Bound, Hu): 0.57
recovery at 4 h, 2 μM ([2]; human, plasma, AO-containing constructs, (FB), read-out: Plasma protein binding % Recovery, Hu): 85%

Compound: C[C@H](O)[C@H]1NC(=O)[C@@H](Cc2c[nH]cn2)NC(=O)[C@@H](CO)NC(=O)[C@@H](Cc2c[nH]cn2)NC(=O)[C@@H](NC(=O)CC[C@H](NC(=O)c2ccc(NCc3cnc4nc(N)[nH]c(=O)c4n3)cc2)C(=O)O)Cc2cn(nn2)CCCC[C@@H](C(=O)NCCOCCOCCOCC(=O)N[C@@H](CCCCNC(=O)CN2CCN(CC(=O)O)CCN(CC(=O)O)CCN(CC(=O)O)CC2)C(N)=O)NC(=O)[C@@H](C)NC1=O [compound 1189, Fol-hshta-PEG3-Lys(DOTA)] ({Pteroyl-γGlu}-[Pra][dH][dS][dH][dT][dA][Lys(N3)][AEEEA]K(DOTA)-NH2; triazole 1-7)
fraction unbound ([1]; CD-1 mouse plasma, read-out: Plasma % Bound, Mu (converted)): 0.705
recovery ([1]; CD-1 mouse plasma, read-out: Plasma protein binding % Recovery, Mu): 97.4%
recovery ([2]; human plasma, read-out: Plasma protein binding % Recovery, Hu): 102%
fraction unbound ([2]; human, plasma, human plasma, read-out: Plasma % Bound, Hu (converted)): 0.54

Compound: C[C@H](O)[C@H]1NC(=O)[C@@H](Cc2ccc(O)cc2)NC(=O)[C@@H](CCCNC(=N)N)NC(=O)[C@@H](CCC(=O)O)NC(=O)[C@@H](CC(=O)O)NC(=O)[C@@H](NC(=O)COCCOCCOCCNC(=O)CCCC[C@@H]2SC[C@@H]3NC(=O)N[C@@H]32)Cc2cn(nn2)CCCC[C@@H](C(N)=O)NC1=O [deryt] ({Biotin-AEEEA}-[Pra][dD][dE][dR][dY][dT][Lys(N3)]-NH2; triazole 1-7)
EC50 (FOLR1; PCC alone, read-out: EC50): 10000 nM

The next lines start with results.

EC50 (FOLR1; read-out: EC50 (ELISA, FOLR1)): 0.9 nM
Compound: C[C@H](O)[C@H]1NC(=O)[C@@H](Cc2c[nH]cn2)NC(=O)[C@@H](CO)NC(=O)[C@@H](Cc2c[nH]cn2)NC(=O)[C@@H](NC(=O)CNC(=O)CC[C@H](NC(=O)c2ccc(NCc3cnc4nc(N)[nH]c(=O)c4n3)cc2)C(=O)O)Cc2cn(nn2)CCCC[C@@H](C(=O)NCCOCCOCCOCCOCCOCCOCCOCCOCCOCCOCCC(=O)NCCOCCOCCOCCOCCOCCOCCOCCOCCOCCOCCC(=O)N[C@@H](CCCCNC(=O)CCCC[C@@H]2SC[C@@H]3NC(=O)N[C@@H]32)C(N)=O)NC(=O)[C@@H](C)NC1=O [Folate-Gly-hshta] ({Pteroyl-γGlu}-G[Pra][dH][dS][dH][dT][dA][Lys(N3)][PEG10][PEG10]K(Biotin)-NH2; triazole 2-8)

EC50 (FOLR1; read-out: EC50 (ELISA, FOLR1)): 0.9 nM
Compound: C[C@H](O)[C@H]1NC(=O)[C@@H](Cc2c[nH]cn2)NC(=O)[C@@H](CO)NC(=O)[C@@H](Cc2c[nH]cn2)NC(=O)[C@@H](NC(=O)[C@H]2CCCN2C(=O)CC[C@H](NC(=O)c2ccc(NCc3cnc4nc(N)[nH]c(=O)c4n3)cc2)C(=O)O)Cc2cn(nn2)CCCC[C@@H](C(=O)NCCOCCOCCOCCOCCOCCOCCOCCOCCOCCOCCC(=O)NCCOCCOCCOCCOCCOCCOCCOCCOCCOCCOCCC(=O)N[C@@H](CCCCNC(=O)CCCC[C@@H]2SC[C@@H]3NC(=O)N[C@@H]32)C(N)=O)NC(=O)[C@@H](C)NC1=O [Folate-Pro-hshta] ({Pteroyl-γGlu}-[dP][Pra][dH][dS][dH][dT][dA][Lys(N3)][PEG10][PEG10]K(Biotin)-NH2; triazole 2-8)

in vitro Assay Data (NEP assay) (human recombinant NEP; Table 7, AO-containing constructs): Cleavage of —G—F—K-
Compound: Cc1ccc(CCCC(=O)NCCCC[C@H](NC(=O)[C@@H]2CCCCn3cc(nn3)C[C@H](NC(=O)CC[C@H](NC(=O)c3ccc(NCc4cnc5nc(N)[nH]c(=O)c5n4)cc3)C(=O)O)C(=O)N[C@H](Cc3cnc[nH]3)C(=O)N[C@H](CO)C(=O)N[C@H](Cc3cnc[nH]3)C(=O)N[C@H]([C@H](C)O)C(=O)N[C@H](C)C(=O)N2)C(=O)NCC(=O)N[C@@H](Cc2ccccc2)C(=O)N[C@@H](CCCCNC(=O)CON)C(=O)O)cc1 [compound 3304, Fol-hshta-Lys(4-MPBA)-Gly-Phe-Lys(AO)] ({Pteroyl-γGlu}-[Pra][dH][dS][dH][dT][dA][Lys(N3)]K(Butanoyl(4-(4-MePh)))GFK(X1)-OH; triazole 1-7)

NEP-mediated cleavage (human recombinant NEP; 1 nM and 0.1 nM NEP): partial cleavage
NEP-mediated cleavage (human recombinant NEP; 10 nM NEP): complete consumption of the peptide
in vitro Assay Data (NEP assay) (human recombinant NEP; Table 2): Cleavage of -G-F-K-
NEP-mediated cleavage (human recombinant NEP; below 0.1 nM NEP): no cleavage
Compound: C[C@H](O)[C@H]1NC(=O)[C@@H](Cc2c[nH]cn2)NC(=O)[C@@H](CO)NC(=O)[C@@H](Cc2c[nH]cn2)NC(=O)[C@@H](NC(=O)CC[C@H](NC(=O)c2ccc(NCc3cnc4nc(N)[nH]c(=O)c4n3)cc2)C(=O)O)Cc2cn(nn2)CCCC[C@@H](C(=O)NCC(=O)N[C@@H](Cc2ccccc2)C(=O)N[C@@H](CCCCNC(=O)CN2CCN(CC(=O)O)CCN(CC(=O)O)CCN(CC(=O)O)CC2)C(=O)O)NC(=O)[C@@H](C)NC1=O [compound 7327, folate-hshta-Gly-Phe-Lys(DOTA)] ({Pteroyl-γGlu}-[Pra][dH][dS][dH][dT][dA][Lys(N3)]GFK(DOTA)-OH; triazole 1-7)
site of neprilysin cleavage (human recombinant NEP): cleaved at the amide bond between Gly and Phe
